From patent publication US20130109682A1, “CYCLIC ETHER COMPOUNDS USEFUL AS KINASE INHIBITORS” (NOVARTIS AG, priority 2010, published 2013)
pEC50, pIC50: −log10 of the molar value.

Columns and labels:
PIM1 = PIM1 (Homo sapiens, UniProt P11309); assay: KinaseGlo Pim1 ATP depletion assay; type: biochemical
Summary of the method: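 2.5 nM PIM1 preincubated 15 min with compound and 40 μM BAD peptide in 50 mM HEPES pH 7.5, 5 mM MgCl2, 1 mM DTT, 0.05% BSA, 2.5% DMSO. The reaction was started with 20 μM ATP (final) and run to about 50% ATP depletion. Remaining ATP read by KinaseGlo Plus luminescence to give IC50.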

PIM2 = PIM2 (Homo sapiens, UniProt Q9P1W9); assay: KinaseGlo Pim2 ATP depletion assay; type: biochemical
Summary of the method: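 Luminescent ATP-depletion read-out of PIM2 phosphorylating BAD peptide (RSRHSSYPAGT-OH). Final conditions: 5 nM PIM2, 4 μM ATP, 10 μM peptide, 2.5% DMSO in 50 mM HEPES pH 7.5, 5 mM MgCl2, 1 mM DTT, 0.05% BSA. Enzyme–peptide preincubated 15 min with compound; reaction run to ~50% ATP depletion.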

PIM3 = PIM3 (Homo sapiens, UniProt Q86V86); assay: KinaseGlo Pim3 ATP depletion assay; type: biochemical
Summary of the method: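 Kinase was preincubated 15 min with BAD peptide in HEPES pH 7.5/MgCl2/DTT/BSA before ATP was added. Final concentrations were 40 μM ATP, 100 μM BAD peptide and 2.5% DMSO, with 5 nM enzyme. The reaction ran to ~50% ATP depletion and remaining ATP was read by KinaseGlo Plus luminescence.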

GSK3β = GSK3β (Homo sapiens, UniProt P49841); assay: GSK3β ATP depletion assay; type: biochemical; conditions: read-out: GSK3b IC50
Summary of the method: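 Human GSK3β (5 nM) preincubated 15 min with 10 μM biotinylated phospho-CREB peptide in pH 7.5 Tris buffer (15 mM MgCl2, 1 mM DTT, 0.1% BSA, 2.5% DMSO). Reaction started with 2 μM ATP and run to about 50% ATP depletion. Remaining ATP measured by KinaseGlo luminescence.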

[1] = system: KMS11 (human myeloma cell line); assay: Cell proliferation assay (CellTiter-Glo), KMS11; type: cell-based; conditions: Homo sapiens, KMS-11; KMS11-Luc cells
Summary of the method: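 KMS11 cells in IMDM with 10% FBS and sodium pyruvate, seeded at 2000 cells/well on assay day. Compound added at 2× to equal volume of cells, incubated 3 days at 37° C. Viability read by CellTiter-Glo luminescence; EC50 derived.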

PIM1, sequence (P11309 whole entry): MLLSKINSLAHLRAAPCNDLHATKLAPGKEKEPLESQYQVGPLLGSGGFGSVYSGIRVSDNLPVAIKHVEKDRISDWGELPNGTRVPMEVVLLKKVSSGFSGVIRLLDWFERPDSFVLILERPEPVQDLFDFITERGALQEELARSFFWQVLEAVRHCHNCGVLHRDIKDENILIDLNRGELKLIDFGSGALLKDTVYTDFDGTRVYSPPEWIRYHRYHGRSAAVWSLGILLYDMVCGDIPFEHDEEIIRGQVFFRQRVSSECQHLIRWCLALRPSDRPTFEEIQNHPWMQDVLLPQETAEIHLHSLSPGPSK
PIM2, sequence (Q9P1W9 whole entry): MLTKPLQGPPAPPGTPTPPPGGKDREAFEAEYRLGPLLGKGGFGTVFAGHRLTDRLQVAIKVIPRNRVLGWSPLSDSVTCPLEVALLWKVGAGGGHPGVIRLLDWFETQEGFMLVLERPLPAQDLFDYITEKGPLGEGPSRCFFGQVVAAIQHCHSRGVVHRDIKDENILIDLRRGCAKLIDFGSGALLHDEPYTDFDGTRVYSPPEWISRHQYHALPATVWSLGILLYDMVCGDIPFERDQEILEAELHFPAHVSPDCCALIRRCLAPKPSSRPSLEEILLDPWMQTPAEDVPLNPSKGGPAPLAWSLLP
GSK3β, sequence (P49841 whole entry, species assumed): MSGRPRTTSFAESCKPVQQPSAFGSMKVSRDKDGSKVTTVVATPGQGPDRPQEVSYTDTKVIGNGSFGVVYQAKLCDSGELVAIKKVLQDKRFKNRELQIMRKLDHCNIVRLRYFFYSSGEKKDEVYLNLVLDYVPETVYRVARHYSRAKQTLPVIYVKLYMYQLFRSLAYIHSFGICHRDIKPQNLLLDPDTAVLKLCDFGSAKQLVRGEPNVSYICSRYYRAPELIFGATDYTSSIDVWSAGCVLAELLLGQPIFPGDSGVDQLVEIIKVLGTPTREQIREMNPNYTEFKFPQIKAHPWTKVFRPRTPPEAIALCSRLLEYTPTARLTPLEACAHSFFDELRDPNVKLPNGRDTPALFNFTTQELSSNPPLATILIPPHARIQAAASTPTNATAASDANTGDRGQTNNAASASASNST

Row | SMILES | pIC50 (PIM1) | pIC50 (PIM2) | pIC50 (PIM3) | pIC50 (GSK3β) | pEC50 [1]
1 | CC(C)NC(=O)c1ccc(F)c(-c2cccc(C(=O)Nc3cnccc3[C@H]3C[C@@H](O)[C@](C)(O)[C@@H](C)O3)n2)c1 [Example 106, N-(4-((2R,4R,5S,6R)-4,5-dihydroxy-5,6-dimethyltetrahydro-2H-pyran-2-yl)pyridin-3-yl)-6-(2-fluoro-5-(isopropylcarbamoyl)phenyl)picolinamide] | 8.15 | 7.11 | 7.82 | 5.45 | 5.04
2 | C[C@@H]1O[C@H](c2ccncc2NC(=O)c2ccc(F)c(-c3c(F)cccc3F)n2)C[C@@H](O)[C@H]1O [Example 107, 6-(2,6-difluorophenyl)-N-(4-((2S,4R,5R,6S)-4,5-dihydroxy-6-methyltetrahydro-2H-pyran-2-yl)pyridin-3-yl)-5-fluoropicolinamide] | 8.70 | 7.70 | 8.40 | 6.71 | 5.23
3 | C[C@H]1O[C@@H](c2ccncc2NC(=O)c2ccc(F)c(-c3c(F)cccc3F)n2)C[C@H](O)[C@@H]1O [Example 108, 6-(2,6-difluorophenyl)-N-(4-((2R,4S,5S,6R)-4,5-dihydroxy-6-methyltetrahydro-2H-pyran-2-yl)pyridin-3-yl)-5-fluoropicolinamide] | 9.00 | 7.82 | 8.30 | 6.46 | 5.38
4 | C[C@@H]1O[C@H](c2ccncc2NC(=O)c2csc(-c3c(F)cccc3F)n2)C[C@H](N)[C@H]1O [Example 113, N-(4-((2S,4S,5R,6S)-4-amino-5-hydroxy-6-methyltetrahydro-2H-pyran-2-yl)pyridin-3-yl)-2-(2,6-difluorophenyl)thiazole-4-carboxamide] | 8.30 | 6.85 | 7.96 | 7.19 | < 5.00
5 | O=C(Nc1cnccc1C1OCCCO1)c1ccc(F)c(-c2c(F)cccc2F)n1 [Example 118, N-(4-(1,3-dioxan-2-yl)pyridin-3-yl)-6-(2,6-difluorophenyl)-5-fluoropicolinamide] | 8.40 | 6.44 | 7.77 | 5.45 | < 5.00
6 | O=C(Nc1cnccc1[C@@H]1C[C@H](O)CCO1)c1csc(-c2c(F)cccc2F)n1 [Example 130, 2-(2,6-difluorophenyl)-N-(4-((2S,4R)-4-hydroxytetrahydro-2H-pyran-2-yl)pyridin-3-yl)thiazole-4-carboxamide] | 7.92 | 5.63 | 7.08 | 6.64 | < 5.00
7 | O=C(Nc1cnccc1[C@H]1C[C@@H](O)CCO1)c1csc(-c2c(F)cccc2F)n1 [Example 131, 2-(2,6-difluorophenyl)-N-(4-((2R,4S)-4-hydroxytetrahydro-2H-pyran-2-yl)pyridin-3-yl)thiazole-4-carboxamide] | 8.52 | 5.96 | 7.66 | 6.67 | < 5.00
8 | O=C(Nc1cnccc1[C@@H]1C[C@H](O)CCO1)c1ccc(F)c(-c2c(F)cccc2F)n1 [Example 132, 6-(2,6-difluorophenyl)-5-fluoro-N-(4-((2S,4R)-4-hydroxytetrahydro-2H-pyran-2-yl)pyridin-3-yl)picolinamide] | 8.22 | 6.33 | 7.48 | 6.71 | < 5.00
9 | O=C(Nc1cnccc1[C@@H]1CCCCO1)c1ccc(F)c(-c2c(F)cccc2F)n1 [Example 133, (S)-6-(2,6-difluorophenyl)-5-fluoro-N-(4-(tetrahydro-2H-pyran-2-yl)pyridin-3-yl)picolinamide] | 8.52 | 6.67 | 8.00 | 5.66 | < 5.00
10 | O=C(Nc1cnccc1[C@H]1CCCCO1)c1ccc(F)c(-c2c(F)cccc2F)n1 [Example 134, (R)-6-(2,6-difluorophenyl)-5-fluoro-N-(4-(tetrahydro-2H-pyran-2-yl)pyridin-3-yl)picolinamide] | 8.00 | 6.17 | 6.40 | 6.12 | < 5.00

Further compounds by rising pIC50 (PIM1), results first:

Row | pIC50 (PIM1) | pIC50 (PIM2) | pIC50 (PIM3) | pIC50 (GSK3β) | pEC50 [1] | SMILES
11 | 8.10 | 5.61 | 7.40 | 5.56 | 5.02 | O=C(Nc1cnccc1C1OCCCO1)c1csc(-c2c(F)cccc2F)n1 [Example 117, N-(4-(1,3-dioxan-2-yl)pyridin-3-yl)-2-(2,6-difluorophenyl)thiazole-4-carboxamide]
12 | 8.40 | 6.84 | 7.85 | 6.19 | 5.82 | C[C@H]1O[C@@H](c2ccncc2NC(=O)c2csc(-c3c(F)cccc3F)n2)C[C@@H](N)[C@@H]1O [Example 114, N-(4-((2R,4R,5S,6R)-4-amino-5-hydroxy-6-methyltetrahydro-2H-pyran-2-yl)pyridin-3-yl)-2-(2,6-difluorophenyl)thiazole-4-carboxamide]
13 | 8.52 | 7.64 | 8.30 | 6.45 | < 5.00 | N#CC[C@H]1O[C@@H](c2ccncc2NC(=O)c2ccc(F)c(-c3c(F)cccc3F)n2)C[C@@H](O)[C@@H]1O [Example 137, N-(4-((2R,4R,5S,6R)-6-(cyanomethyl)-4,5-dihydroxytetrahydro-2H-pyran-2-yl)pyridin-3-yl)-6-(2,6-difluorophenyl)-5-fluoropicolinamide]
14 | 8.70 | 7.64 | 8.15 | 5.51 | 5.72 | C[C@H]1O[C@@H](c2ccncc2NC(=O)c2ccc(F)c(-c3c(F)cccc3F)n2)C[C@@H](N)[C@@H]1O [Example 116, N-(4-((2R,4R,5S,6R)-4-amino-5-hydroxy-6-methyltetrahydro-2H-pyran-2-yl)pyridin-3-yl)-6-(2,6-difluorophenyl)-5-fluoropicolinamide]
15 | 8.70 | 7.92 | 8.52 | 6.10 | < 5.00 | C[C@@H]1O[C@H](c2ccncc2NC(=O)c2ccc(F)c(-c3c(F)cccc3F)n2)C[C@H](O)[C@H]1O [Example 120, 6-(2,6-difluorophenyl)-N-(4-((2S,4S,5R,6S)-4,5-dihydroxy-6-methyltetrahydro-2H-pyran-2-yl)pyridin-3-yl)-5-fluoropicolinamide]
16 | 9.00 | 7.30 | 8.22 | 5.93 | 5.33 | CC(C)NC(=O)c1ccc(F)c(-c2nc(C(=O)Nc3cnccc3[C@H]3C[C@@H](O)[C@](C)(O)[C@@H](C)O3)ccc2F)c1 [Example 105, N-(4-((2R,4R,5S,6R)-4,5-dihydroxy-5,6-dimethyltetrahydro-2H-pyran-2-yl)pyridin-3-yl)-5-fluoro-6-(2-fluoro-5-(isopropylcarbamoyl)phenyl)picolinamide]
17 | 9.00 | 7.96 | 8.70 | 6.20 | 5.14 | C[C@H]1O[C@@H](c2ccncc2NC(=O)c2ccc(F)c(-c3c(F)cccc3F)n2)C[C@@H](O)[C@@H]1O [Example 119, 6-(2,6-difluorophenyl)-N-(4-((2R,4R,5S,6R)-4,5-dihydroxy-6-methyltetrahydro-2H-pyran-2-yl)pyridin-3-yl)-5-fluoropicolinamide]
